Test results as given in the supplement of paper PMC11451515.

Tested on: P12-Ichikawa
Assay: cell viability relative to DMSO control; higher = less cytotoxic
Settings: 48 h
In short: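 Library compounds in DMSO were pin-dosed in an 11-point threefold series (47 μM to 0.79 nM) onto leukemia cells in 1536-well plates (5 μl). Plates held 500 cells/well of NOMO1 or SEM or 1000 cells/well of P12-Ichikawa, each adapted for at least four passages in each medium. Luminescence was read with CellTiter-Glo One after 48 h at 37°C. Viability means the per-plate percentage relative to DMSO wells, using cell-free wells as background.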

[1] = HPLM + 10% dialyzed FBS, 0.000781 µM
[2] = HPLM + 10% dialyzed FBS, 0.00234 µM
[3] = HPLM + 10% dialyzed FBS, 0.00702 µM
[4] = HPLM + 10% dialyzed FBS, 0.0211 µM
[5] = HPLM + 10% dialyzed FBS, 0.0632 µM
[6] = HPLM + 10% dialyzed FBS, 0.19 µM
[7] = HPLM + 10% dialyzed FBS, 0.569 µM
[8] = HPLM + 10% dialyzed FBS, 1.71 µM
[9] = HPLM + 10% dialyzed FBS, 5.12 µM
[10] = HPLM + 10% dialyzed FBS, 15.4 µM
[11] = HPLM + 10% dialyzed FBS, 46.1 µM
[12] = RPMI 5 mM glucose + 10% FBS, 0.000781 µM
[13] = RPMI 5 mM glucose + 10% FBS, 0.00234 µM
[14] = RPMI 5 mM glucose + 10% FBS, 0.00702 µM
[15] = RPMI 5 mM glucose + 10% FBS, 0.0211 µM
[16] = RPMI 5 mM glucose + 10% FBS, 0.0632 µM
[17] = RPMI 5 mM glucose + 10% FBS, 0.19 µM
[18] = RPMI 5 mM glucose + 10% FBS, 0.569 µM
[19] = RPMI 5 mM glucose + 10% FBS, 1.71 µM
[20] = RPMI 5 mM glucose + 10% FBS, 5.12 µM
[21] = RPMI 5 mM glucose + 10% FBS, 15.4 µM
[22] = RPMI 5 mM glucose + 10% FBS, 46.1 µM
[23] = RPMI 5 mM glucose + 10% dialyzed FBS, 0.000781 µM
[24] = RPMI 5 mM glucose + 10% dialyzed FBS, 0.00234 µM
[25] = RPMI 5 mM glucose + 10% dialyzed FBS, 0.00702 µM
[26] = RPMI 5 mM glucose + 10% dialyzed FBS, 0.0211 µM
[27] = RPMI 5 mM glucose + 10% dialyzed FBS, 0.0632 µM
[28] = RPMI 5 mM glucose + 10% dialyzed FBS, 0.19 µM
[29] = RPMI 5 mM glucose + 10% dialyzed FBS, 0.569 µM
[30] = RPMI 5 mM glucose + 10% dialyzed FBS, 1.71 µM
[31] = RPMI 5 mM glucose + 10% dialyzed FBS, 5.12 µM
[32] = RPMI 5 mM glucose + 10% dialyzed FBS, 15.4 µM
[33] = RPMI 5 mM glucose + 10% dialyzed FBS, 46.1 µM

SMILES: Cc1cc(SCc2sc(-c3ccc(C(F)(F)F)cc3)nc2C)ccc1OCC(=O)O
- cell viability [1]: 97.8%
- cell viability [2]: 102%
- cell viability [3]: 102%
- cell viability [4]: 104%
- cell viability [5]: 102%
- cell viability [6]: 99.8%
- cell viability [7]: 106%
- cell viability [8]: 100%
- cell viability [9]: 103%
- cell viability [10]: 94.9%
- cell viability [11]: 90.6%
- cell viability [12]: 98.3%
- cell viability [13]: 104%
- cell viability [14]: 96.6%
- cell viability [15]: 101%
- cell viability [16]: 106%
- cell viability [17]: 91.2%
- cell viability [18]: 101%
- cell viability [19]: 94.6%
- cell viability [20]: 94.8%
- cell viability [21]: 81.1%
- cell viability [22]: 83.2%
- cell viability [23]: 96.8%
- cell viability [24]: 101%
- cell viability [25]: 102%
- cell viability [26]: 96.6%
- cell viability [27]: 94.8%
- cell viability [28]: 97%
- cell viability [29]: 101%
- cell viability [30]: 92.5%
- cell viability [31]: 97.6%
- cell viability [32]: 87.2%
- cell viability [33]: 83.5%

SMILES: O=[S+]([O-])(O)c1ccc2cc(/N=N/c3cc([S+](=O)([O-])O)c4cccnc4c3O)ccc2c1
- cell viability [1]: 123%
- cell viability [2]: 123%
- cell viability [3]: 125%
- cell viability [4]: 110%
- cell viability [5]: 126%
- cell viability [6]: 120%
- cell viability [7]: 124%
- cell viability [8]: 111%
- cell viability [9]: 108%
- cell viability [10]: 113%
- cell viability [11]: 58.8%
- cell viability [12]: 131%
- cell viability [13]: 124%
- cell viability [14]: 121%
- cell viability [15]: 109%
- cell viability [16]: 126%
- cell viability [17]: 112%
- cell viability [18]: 115%
- cell viability [19]: 111%
- cell viability [20]: 113%
- cell viability [21]: 113%
- cell viability [22]: 59.2%
- cell viability [23]: 135%
- cell viability [24]: 125%
- cell viability [25]: 114%
- cell viability [26]: 110%
- cell viability [27]: 114%
- cell viability [28]: 122%
- cell viability [29]: 117%
- cell viability [30]: 114%
- cell viability [31]: 113%
- cell viability [32]: 101%
- cell viability [33]: 56.4%

SMILES: NC(=O)c1cnc(-c2ccc(C3(N)CCC3)cc2)c(-c2ccccc2)c1
- cell viability [12]: 118%
- cell viability [13]: 126%
- cell viability [14]: 115%
- cell viability [15]: 111%
- cell viability [16]: 115%
- cell viability [17]: 134%
- cell viability [18]: 121%
- cell viability [19]: 116%
- cell viability [20]: 111%
- cell viability [21]: 80.4%
- cell viability [22]: 67.9%

SMILES: CCOC(CN1C(=O)[C@](CC(=O)Nc2ccc(C)cc2)(NC(=O)Nc2ccc(C)cc2)c2ccccc21)OCC
- cell viability [1]: 103%
- cell viability [2]: 105%
- cell viability [3]: 109%
- cell viability [4]: 111%
- cell viability [5]: 105%
- cell viability [6]: 109%
- cell viability [7]: 115%
- cell viability [8]: 108%
- cell viability [9]: 111%
- cell viability [10]: 111%
- cell viability [11]: 19.8%
- cell viability [12]: 102%
- cell viability [13]: 107%
- cell viability [14]: 101%
- cell viability [15]: 108%
- cell viability [16]: 105%
- cell viability [17]: 105%
- cell viability [18]: 105%
- cell viability [19]: 117%
- cell viability [20]: 101%
- cell viability [21]: 106%
- cell viability [22]: 34.8%
- cell viability [23]: 100%
- cell viability [24]: 104%
- cell viability [25]: 93.7%
- cell viability [26]: 107%
- cell viability [27]: 102%
- cell viability [28]: 104%
- cell viability [29]: 116%
- cell viability [30]: 96.3%
- cell viability [31]: 102%
- cell viability [32]: 98%
- cell viability [33]: 37.6%

SMILES: CCc1cccc2c3c([nH]c12)C(CC)(CC(=O)O)OCC3 (stereo not given)
- cell viability [1]: 108%
- cell viability [2]: 107%
- cell viability [3]: 110%
- cell viability [4]: 109%
- cell viability [5]: 104%
- cell viability [6]: 105%
- cell viability [7]: 105%
- cell viability [8]: 108%
- cell viability [9]: 99.4%
- cell viability [10]: 99.2%
- cell viability [11]: 93.7%
- cell viability [12]: 104%
- cell viability [13]: 107%
- cell viability [14]: 106%
- cell viability [15]: 103%
- cell viability [16]: 101%
- cell viability [17]: 99.9%
- cell viability [18]: 100%
- cell viability [19]: 93.1%
- cell viability [20]: 96.4%
- cell viability [21]: 96.6%
- cell viability [22]: 85.7%
- cell viability [23]: 94.4%
- cell viability [24]: 98%
- cell viability [25]: 99.9%
- cell viability [26]: 103%
- cell viability [27]: 102%
- cell viability [28]: 101%
- cell viability [29]: 98.9%
- cell viability [30]: 98.1%
- cell viability [31]: 92.9%
- cell viability [32]: 94.1%
- cell viability [33]: 84.8%

SMILES: CC(=O)Oc1cc2c(s1)CCN(C(C(=O)C1CC1)c1ccccc1F)C2.Cl (stereo not given)
- cell viability [1]: 95%
- cell viability [2]: 102%
- cell viability [3]: 100%
- cell viability [4]: 107%
- cell viability [5]: 107%
- cell viability [6]: 103%
- cell viability [7]: 107%
- cell viability [8]: 112%
- cell viability [9]: 101%
- cell viability [10]: 106%
- cell viability [11]: 65.1%
- cell viability [12]: 100%
- cell viability [13]: 106%
- cell viability [14]: 101%
- cell viability [15]: 111%
- cell viability [16]: 115%
- cell viability [17]: 124%
- cell viability [18]: 116%
- cell viability [19]: 133%
- cell viability [20]: 101%
- cell viability [21]: 94.8%
- cell viability [22]: 53.5%
- cell viability [23]: 95.9%
- cell viability [24]: 105%
- cell viability [25]: 102%
- cell viability [26]: 104%
- cell viability [27]: 103%
- cell viability [28]: 112%
- cell viability [29]: 104%
- cell viability [30]: 101%
- cell viability [31]: 99.7%
- cell viability [32]: 80.3%
- cell viability [33]: 50.3%

SMILES: N#CC1(c2ccc(NC(=O)c3cccnc3NCc3ccncc3)cc2)CCCC1
- cell viability [1]: 120%
- cell viability [2]: 123%
- cell viability [3]: 113%
- cell viability [4]: 116%
- cell viability [5]: 116%
- cell viability [6]: 110%
- cell viability [7]: 108%
- cell viability [8]: 104%
- cell viability [9]: 106%
- cell viability [10]: 77.8%
- cell viability [11]: 102%
- cell viability [12]: 119%
- cell viability [13]: 108%
- cell viability [14]: 123%
- cell viability [15]: 107%
- cell viability [16]: 122%
- cell viability [17]: 111%
- cell viability [18]: 113%
- cell viability [19]: 109%
- cell viability [20]: 102%
- cell viability [21]: 110%
- cell viability [22]: 98.9%
- cell viability [23]: 118%
- cell viability [24]: 122%
- cell viability [25]: 115%
- cell viability [26]: 109%
- cell viability [27]: 113%
- cell viability [28]: 114%
- cell viability [29]: 103%
- cell viability [30]: 113%
- cell viability [31]: 103%
- cell viability [32]: 96.3%
- cell viability [33]: 90.8%

SMILES: CC[C@H](NC(C)C)[C@H](O)c1ccc(O)c2[nH]c(=O)ccc12
- cell viability [1]: 108%
- cell viability [2]: 111%
- cell viability [3]: 102%
- cell viability [4]: 106%
- cell viability [5]: 99%
- cell viability [6]: 102%
- cell viability [7]: 101%
- cell viability [8]: 105%
- cell viability [9]: 102%
- cell viability [10]: 92.1%
- cell viability [11]: 97.8%
- cell viability [12]: 102%
- cell viability [13]: 106%
- cell viability [14]: 104%
- cell viability [15]: 101%
- cell viability [16]: 96.9%
- cell viability [17]: 107%
- cell viability [18]: 108%
- cell viability [19]: 94.3%
- cell viability [20]: 95.2%
- cell viability [21]: 94.1%
- cell viability [22]: 92.6%
- cell viability [23]: 91.4%
- cell viability [24]: 98.2%
- cell viability [25]: 97.6%
- cell viability [26]: 95%
- cell viability [27]: 100%
- cell viability [28]: 97.1%
- cell viability [29]: 98.2%
- cell viability [30]: 89.9%
- cell viability [31]: 93.5%
- cell viability [32]: 95.1%
- cell viability [33]: 93.8%

SMILES: CCOc1cc(/C=C2/C(=O)N(c3ccccc3)N=C2C)cc(Cl)c1OCC(=O)OC
- cell viability [1]: 85.7%
- cell viability [2]: 90.9%
- cell viability [3]: 87.7%
- cell viability [4]: 93.7%
- cell viability [5]: 84.6%
- cell viability [6]: 89.9%
- cell viability [7]: 91.1%
- cell viability [8]: 98.7%
- cell viability [9]: 88.3%
- cell viability [10]: 84.6%
- cell viability [11]: 83.3%
- cell viability [12]: 79.4%
- cell viability [13]: 89.3%
- cell viability [14]: 77.2%
- cell viability [15]: 85.7%
- cell viability [16]: 81%
- cell viability [17]: 92.8%
- cell viability [18]: 89.1%
- cell viability [19]: 86.6%
- cell viability [20]: 89.8%
- cell viability [21]: 80.9%
- cell viability [22]: 89.6%
- cell viability [23]: 90.1%
- cell viability [24]: 85.7%
- cell viability [25]: 92%
- cell viability [26]: 88%
- cell viability [27]: 83%
- cell viability [28]: 88.5%
- cell viability [29]: 85%
- cell viability [30]: 86.9%
- cell viability [31]: 86.9%
- cell viability [32]: 90.7%
- cell viability [33]: 86.5%
